In US11485742B2, “2-azaspiro[3.4]octane derivatives as M4 agonists” (NOVARTIS AG, priority 2019, dated 2022):

How the values were obtained:
[1] = target: T1, human cloned CHRM2 receptor (Homo sapiens, UniProt P08172); assay: CHRM2 Ca++ Flux Assay (M2_CHO cells, agonist mode); assay type: cell-based; conditions: M2 CHO cells; for EC50: agonist mode, geometric mean if tested more than once, read-out: M2 FDSS EC50; for Emax: Percent Activity (PA) measured to EC100 of Carbachol, read-out: M2 FDSS PA %
T1 construct: expressed in transfected cells; host or cells: CHO-K1 (M2_CHO)
T1 sequence (P08172 1-466): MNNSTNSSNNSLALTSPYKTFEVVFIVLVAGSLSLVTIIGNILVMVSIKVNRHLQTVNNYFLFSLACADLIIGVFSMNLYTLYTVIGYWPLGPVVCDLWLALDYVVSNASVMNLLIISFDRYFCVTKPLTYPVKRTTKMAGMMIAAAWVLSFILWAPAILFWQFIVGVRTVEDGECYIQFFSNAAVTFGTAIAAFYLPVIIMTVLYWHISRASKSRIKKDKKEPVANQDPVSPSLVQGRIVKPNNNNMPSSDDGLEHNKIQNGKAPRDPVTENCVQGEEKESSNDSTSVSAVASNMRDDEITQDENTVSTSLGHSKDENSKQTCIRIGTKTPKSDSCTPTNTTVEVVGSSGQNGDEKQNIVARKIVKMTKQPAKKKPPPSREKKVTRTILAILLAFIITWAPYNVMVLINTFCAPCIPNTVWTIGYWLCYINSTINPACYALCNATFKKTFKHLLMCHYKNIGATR
How it was run: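 Agonist activity was expressed as percent of the carbachol EC100 response, fitted by four-parameter regression on triplicate wells, with geometric means across repeat runs. Calcium traces over 3 minutes came from dye-loaded M2_CHO cells (12K/well) pre-incubated 60 min in Ca/Mg-free HBSS with 20 mM HEPES, 2.5 mM probenecid and 20 μM ATP.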

[2] = target: T2, human cloned CHRM5 receptor (Homo sapiens, UniProt P08912); assay: CHRM5 Ca++ Flux Assay (M5_CHO cells, agonist mode); assay type: cell-based; conditions: for Emax: Percent Activity (PA) measured to EC100 of Carbachol, read-out: M5 FDSS PA %; for EC50: agonist mode, geometric mean if tested more than once, read-out: M5 FDSS EC50
T2 construct: expressed in transfected cells; host or cells: CHO (M5_CHO)
T2 sequence (P08912 1-532): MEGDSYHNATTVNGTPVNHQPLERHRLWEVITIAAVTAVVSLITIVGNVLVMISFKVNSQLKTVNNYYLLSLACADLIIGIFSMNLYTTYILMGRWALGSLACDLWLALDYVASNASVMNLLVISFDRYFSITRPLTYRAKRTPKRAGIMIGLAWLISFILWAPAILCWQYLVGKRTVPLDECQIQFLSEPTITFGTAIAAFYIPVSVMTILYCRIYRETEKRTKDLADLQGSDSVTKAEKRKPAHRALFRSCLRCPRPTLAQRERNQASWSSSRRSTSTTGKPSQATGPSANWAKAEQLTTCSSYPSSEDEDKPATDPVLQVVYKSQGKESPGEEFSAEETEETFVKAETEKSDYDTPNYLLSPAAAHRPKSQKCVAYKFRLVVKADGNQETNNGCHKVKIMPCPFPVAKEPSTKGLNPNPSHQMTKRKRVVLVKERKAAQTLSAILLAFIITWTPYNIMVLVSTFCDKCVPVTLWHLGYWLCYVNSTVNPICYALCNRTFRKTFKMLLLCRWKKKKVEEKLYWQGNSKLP
How it was run: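 Agonist-mode calcium mobilisation: compounds, 11 concentrations in triplicate, applied to stable M3_CHO or M5_CHO cells loaded with Ca++ dye, fluorescence followed 3 min. Efficacy expressed against carbachol EC100; EC curves by four-parameter nonlinear regression, geometric mean across independent runs.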

Row | EC50 [1] [µM] | Emax [1] [%] | Emax [2] [%] | EC50 [2] [µM] | SMILES
1 | 1.24 | 18 | 0 | > 25 | COc1ccccc1C1CCN([C@@H]2COC3(C2)CN(c2nncs2)C3)CC1 [Example 5R, (S)-7-(4-(2-methoxyphenyl)piperidin-1-yl)-2-(1,3,4-thiadiazol-2-yl)-5-oxa-2-azaspiro[3.4]octane]
2 | 4.6 | 23 | 0 | > 25 | COCCOc1ccc(F)cc1C1CCN([C@@H]2COC3(C2)CN(c2nncs2)C3)CC1 [Example 5S, (S)-7-(4-(5-fluoro-2-(2-methoxyethoxy)phenyl)piperidin-1-yl)-2-(1,3,4-thiadiazol-2-yl)-5-oxa-2-azaspiro[3.4]octane]
3 | 20 | 35 | 0 | > 25 | COc1cc(F)ccc1C1CCN([C@@H]2COC3(C2)CN(c2nncs2)C3)CC1 [Example 5T, (S)-7-(4-(4-fluoro-2-methoxyphenyl)piperidin-1-yl)-2-(1,3,4-thiadiazol-2-yl)-5-oxa-2-azaspiro[3.4]octane]
4 | 0.483 | 17 | 0 | > 25 | CC(C)(O)COc1ccc(F)cc1C1CCN([C@@H]2COC3(C2)CN(c2nncs2)C3)CC1 [Example 5U, (S)-1-(2-(1-(2-(1,3,4-thiadiazol-2-yl)-5-oxa-2-azaspiro[3.4]octan-7-yl)piperidin-4-yl)-4-fluorophenoxy)-2-methylpropan-2-ol]
